Assay results reported in US20240173432A1, “Compositions and Methods for Treatment of Myotonic Dystrophy Type 1 with CRISPR/SluCas9” (Vertex Pharmaceuticals Incorporated, priority 2021, published 2024).

Assays:
[1] = system: 3′ UTR of the human DMPK gene; experiment: Single-cut screening: indel editing efficiency by Sanger sequencing and ICE analysis in primary DM1 patient myoblasts; assay type: cell-based; conditions: vehicle-treated samples; for Indel efficiency: single SluCas9 sgRNA RNP in primary DM1 patient myoblasts, Sanger sequencing and ICE analysis; for indel efficiency (Sanger sequencing and ICE analysis): single-cut, SluCas9 RNP, 72 hrs post nucleofection, wild-type allele
How it was run: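 Indels were estimated by ICE from Sanger chromatograms of PCR amplicons covering the DMPK 3′ UTR wild-type allele, using only vehicle-treated samples; sgRNAs with R2<0.9 are flagged. Samples came from primary DM1 patient myoblasts (2 × 10^5) harvested 72 h after nucleofection with 30 pmol SluCas9 and 90 pmol single sgRNA RNP.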

[2] = system: CAG foci in primary DM1 patient myoblasts; experiment: Single-cut screening: CAG foci staining; assay type: cell-based, human; conditions: single sgRNA; for % of CAG foci positive nuclei (DNA-PKi): DNA-PKi treated
How it was run: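 Primary DM1 patient myoblasts were PFA-fixed and hybridized with […] (1 ng/μL, 15 min at 80° C) in 30% formamide/2×SSC, followed by anti-MBNL1 immunostaining and Hoechst counterstain. CAG RNA foci were quantified by high-content confocal imaging after single-cut SuCas9 sgRNA editing.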

[3] = system: CUG foci in primary DM1 patient myoblasts; experiment: Single-cut screening: FISH staining of CUG RNA foci; assay type: cell-based, human; conditions: single sgRNA, primary DM1 patient myoblasts; for % of CUG foci free nuclei (DNA-PKi): DNA-PKi treated
How it was run: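 CD56-purified primary DM1 patient myoblasts nucleofected with SluCas9:sgRNA RNP (30:90 pmol, single-cut), then DMSO or 3 μM DNA-PK inhibitor for 48 h. At 72 h post-nucleofection, cells fixed and stained for CUG foci with Cy3-PNA(CAG)5 probe (1 ng/μL, 80 °C), co-stained for MBNL1 and Hoechst, imaged by high-content confocal microscopy.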

Substance	Indel efficiency [1]	indel efficiency (Sanger sequencing and ICE analysis) [1]	% of CAG foci positive nuclei (DNA-PKi) [2]	% of CAG foci positive nuclei (Vehicle) [2]	% of CUG foci free nuclei (DNA-PKi) [3]	% of CUG foci free nuclei (Vehicle) [3]
GTGGGGACAGACAATAAATACC (listed as DNA, chemistry not fully specified) [SluD83]	70%	high editing IN4DEL efficiency	1.51%	1.64%	34%	19.15%
SluD101: downstream SluCas9 sgRNA, presumably SEQ ID NO 167; sequence not in the shown tables (guide AGTCCAGAGCTTTGGGCAGATG; listed as DNA, chemistry not fully specified)	38%	–	2.93%	2.09%	33.61%	21.35%
TAGCggccggggagggaggggc (guide RNA; as printed in the source, key not given here) [SluU49]	0%	–	1.44%	1.03%	38.7%	7.53%
TCAGCCTGGCCGAAAGAAAGAA (guide RNA; chemistry not fully specified) [SluD04]	1%	–	1.94%	1.17%	19.38%	13.29%
TCAGTGCATCCAAAACGTGGAT (guide RNA; chemistry not fully specified) [SluD76]	20%	–	2.16%	1.73%	29.87%	15.78%
TCCAAAACGTGGATTGGGGTTG (guide RNA; chemistry not fully specified) [SluD74]	56%	–	1.55%	2.27%	31.37%	10.6%
TCCGAGAGCAGCGCAAGTGAGG (guide RNA; chemistry not fully specified) [SluD51]	33%	–	2.13%	2.15%	28.86%	14.34%
TCCGGGCCCGCCCCCTAGCggc (guide RNA; as printed in the source, key not given here) [SluU36]	24%	–	1.96%	1.05%	40.62%	11.72%
TCGCGCCAGACGCTCCCCAGAG (guide RNA; chemistry not fully specified) [SluD35]	0%	–	1.13%	1.04%	12.47%	6.61%
TCGGCCAGGCTGAGGCCCTGAC (guide RNA; chemistry not fully specified) [SluD05]	22%	–	1.1%	1.42%	26.99%	26.95%
TCTTGTGCATGACGCCCTGCTC (guide RNA; chemistry not fully specified) [SluD31]	63%	–	3.21%	3.06%	23.95%	14.17%
TGCACTGAGACCCCGACATTCC (guide RNA; chemistry not fully specified) [SluD79]	2%	–	1.79%	0.82%	25.61%	11.48%
TGCGCTGCTCTCGGAGCCCCAG (guide RNA; chemistry not fully specified) [SluD54]	26%	–	2.85%	2.11%	33.12%	10.7%
TGCTTTTGCCAAACCCGCTTTT (guide RNA; chemistry not fully specified) [SluD39]	39%	–	1.68%	1.95%	31.63%	9.15%
TGGAAGACTGAGTGCCCGGGGC (guide RNA; chemistry not fully specified) [SluU14]	52%	–	1.63%	1.02%	58.84%	29.12%
TGGAGGATGGAACACGGACGGC (listed as DNA, chemistry not fully specified) [SluD18]	75%	high editing IN4DEL efficiency	1.55%	2.71%	31.47%	15.38%
TGGGCGGAGACCCACGCTCGGA (guide RNA; chemistry not fully specified) [SluU25]	38%	–	1.29%	0.92%	47.96%	23.15%
TGTCTTCGACTCCGGGGCCCCG (listed as DNA, chemistry not fully specified) [SluU06]	81%	high editing IN4DEL efficiency	1.1%	1.01%	67.15%	25.49%
TGTGAACTGGCAGGCGGTGGGC (guide RNA; chemistry not fully specified) [SluU17]	32%	–	1.28%	1.5%	67.55%	21.96%
TGTGATCCGGGCCCGCCCCCTA (guide RNA; chemistry not fully specified) [SluU33]	26%	–	1.3%	1.14%	57.35%	24.67%
TTATTCGCGAGGGTCGGGGGTG (guide RNA; chemistry not fully specified) [SluD89]	0%	–	2.54%	0.61%	11.37%	10.23%
TTTATTCGCGAGGGTCGGGGGT (guide RNA; chemistry not fully specified) [SluD91]	33%	–	4.23%	1%	21.28%	22.42%
